Measurements: patent US10004716B2, “Therapeutic/ preventive agent containing coumarin derivative as active ingredient” (NIPPON ZOKI PHARMACEUTICAL CO., LTD., priority 2014, dated 2018)

Assays:
[1] = tested on: fibronectin gene expression; test: Evaluation I: TGF-β-induced gene expression of fibrosis-related factors in NHLF cells: fibronectin; type: cell-based, human; conditions: 25 μmol/L test substance 2 hours, then TGF-β 5 ng/mL 24 hours, n = 3
Description: (§1) NHLF cells were sown so as to make their amount 4×10^4 cells/well to each well of a 12-well plate and incubated to an extent of 80% confluent in a medium where fibroblast growth medium 2 supplement mix (FGM-2 SingleQuots, Lonza) was added to a fibroblast basal medium (FBM, Lonza). After that, incubation was conducted for 2 hours in a Dulbecco modified Eagle medium (DMEM) containing 25 μmol/L of a test substance and, after addition of […] growth factor (TGF)-β thereto so as to make its final concentration 5 ng/mL, incubation was carried out for 24 hours more.
(§2) QIAzol Lysis Reagent (QIAGEN) (1 mL) was added to the above to suspend, 200 μL of chloroform was added thereto followed by mixing and centrifugation (at 4° C. and 1500 rpm) was then conducted whereby the supernatant liquid was recovered. Total RNA was extracted and purified by treating the supernatant liquid with QIACube (QIAGEN) and RNeasy Micro Kit (QIAGEN). cDNA was prepared from the total RNA using Omniscript RT kit (QIAGEN) and Oligo(dT)12-18 Primer (Invitrogen).
(§3) Gene expression level of the fibrosis-related factors [connective tissue growth factor (CTGF), α-smooth muscle actin (SMA), fibronectin, endothelin and type I collagen (Col 1)] was measured by a conventional real time PCR method using a fluorescent dye SYBR GREEN I (Roche Diagnostics) by Light Cycler LC 480 (the same) using cDNA synthesized from the total RNA extracted in the above (2). A calibration curve was prepared by diluting the PCR product quantified by PicoGreen dsDNA Quantitation kit (Molecular probes) (a DNA quantitation kit) to an extent of 10^2˜10^7 copies/μL. From each of the resulting quantified values, copy numbers per 10000 copies of GAPDH gene being an internal standard were calculated.

[2] = tested on: endothelin gene expression; test: Evaluation I: TGF-β-induced gene expression of fibrosis-related factors in NHLF cells: endothelin; type: cell-based, human; conditions: 25 μmol/L test substance 2 hours, then TGF-β 5 ng/mL 24 hours, n = 3
Description: as §1, §2, §3

[3] = tested on: monocyte chemotactic protein (MCP)-1 gene expression; test: Suppression of LPS-induced gene expression of inflammation-related factors in THP-1 cells (real time PCR): MCP-1; type: cell-based, human; conditions: PMA-differentiated THP-1 cells; test substance 12.5 μmol/mL 2 hours, then LPS 10 mg/mL 3 hours; n = 3
Description: THP-1 cells were subjected to induction of differentiation for 72 hours with PMA (phorbol 12-myristate 13-acetate; 100 nM/L) and then the THP-1 cells (5×10^5 cells/mL) were incubated for 24 hours in a RPMI 1640+10% FCS culture solution in a 24-well plate. After that, a test substance was added so as to make the final concentration 12.5 μmol/mL followed by conducting the preincubation for 2 hours, a lipopolysaccharide (LPS) was then added thereto so as to make the final concentration 10 mg/mL and, after 3 hours, the cells were recovered.
as §2, with “was” for “was then”
as §3, with “inflammation-related” for “fibrosis-related”, “[IL-1β, IL-6” for “[connective tissue growth factor (CTGF), α-smooth muscle actin (SMA), fibronectin, endothelin”, “monocyte chemotactic protein (MCP)-1]” for “type I collagen (Col 1)]”

IL-6 gene expression = test: Suppression of IL-1α-induced gene expression of inflammation-related factors in bovine cartilage pieces (real time PCR): IL-6; type: cell-based; conditions: 20 μmol/L test substance 2 hours, then IL-1α 3 ng/mL 8 hours, n = 3
Description: (§4) Each 6 to 8 cartilage pieces (diameter: 4 mm) of bovine metacarpophalangeal joint were placed into each well of a 24-well plate and incubated for one night in 1 mL of a basal medium in a CO2 incubator which was set at 37° C. and 5% by volume of CO2. After that, they were incubated for 2 hours in a basal medium containing 20 μmol/L of a test substance and, after addition of human recombinant IL-1α (3 ng/mL) thereto, they were incubated for 8 hours more. After completion of the incubation, the culture medium was discarded, an RNA stabilizer was added to the cartilage pieces, the mixture was incubated at 4° C. for one night and the cartilage pieces were finely cut using scissors, placed into micro-tubes and stored with freezing until the extraction of RNA therefrom.
(§5) The cartilage pieces placed in the micro-tubes were pulverized using Tissue Lyser (QIAGEN) (at 25 Hz for 5 minutes; for two times), 1 mL of QIAzol Lysis Reagent (QIAGEN) was added thereto to suspend, 200 μL of chloroform was added thereto followed by mixing and the mixture was centrifuged (1500 rpm at 4° C.) to recover the supernatant liquid. Total RNA was extracted and purified using QIACube (QIAGEN) and RNeasy Micro Kit (QIAGEN). cDNA was prepared from the total RNA using Omniscript RT Kit (QIAGEN) and Oligo(dT)12-18 Primer (Invitrogen).
(§6) The cDNA synthesized from the total RNA extracted in the above (2) was used to measure the gene expression level of the inflammation-related factors [IL-1β, IL-6, COX-2 and iNOS (inducible nitric oxide synthase)] by a conventional real time PCR method using a fluorescent dye SYBR GREEN I (Roche Diagnostics) by a Light Cycler LC 480 (the same). A calibration curve was prepared by dilution of a PCR product quantified by a DNA quantitation kit (PicoGreen dsDNA Quantitiation Kit (Molecular Probes)) to an extent of 10^2˜10^7 copies/μL. From each of the resulting measured data, copy numbers per 10000 copies of glyceroaldehyde-3-phosphate dehydrogenase (GAPDH) which was an internal standard were calculated.

IL-1β gene expression = test: Suppression of IL-1α-induced gene expression of inflammation-related factors in bovine cartilage pieces (real time PCR): IL-1β; type: cell-based; conditions: 20 μmol/L test substance 2 hours, then IL-1α 3 ng/mL 8 hours, n = 3
Description: as §4, §5, §6

| Compound | Copy Numbers per 10000 Copies of GAPDH Fibronectin [1] | Copy Numbers per 10000 Copies of GAPDH Endothelin [2] | Copy Numbers per 10000 Copies of GAPDH MCP-1 [3] | Copy Numbers per 10000 Copies of GAPDH IL-6 (IL-6 gene expression) | Copy Numbers per 10000 Copies of GAPDH IL-1β (IL-1β gene expression) |
| --- | --- | --- | --- | --- | --- |
| O=c1oc2c(OS(=O)(=O)c3cccc(Br)c3)cccc2cc1NS(=O)(=O)c1cccc(C(F)(F)F)c1 [Compound 60, 2-Oxo-3-[[3-(trifluoromethyl)phenyl]sulfonylamino]-chromen-8-yl 3-bromobenzenesulfonate] | 30000.8 copies per 10000 copies of GAP | 16.9 copies per 10000 copies of GAP | 1787.5 copies per 10000 copies of GAP | 9277.4 copies per 10000 copies of GAP | 170.6 copies per 10000 copies of GAP |
| O=c1oc2c(OS(=O)(=O)c3ccc(C(F)(F)F)cc3)cccc2cc1NS(=O)(=O)c1cccc(C(F)(F)F)c1 [Compound 57, 2-Oxo-3-[[3-(trifluoromethyl)phenyl]sulfonylamino]-chromen-8-yl 4-(trifluoromethyl)benzenesulfonate] | 21220.7 copies per 10000 copies of GAP | 8.2 copies per 10000 copies of GAP | 1001.3 copies per 10000 copies of GAP | 7749.8 copies per 10000 copies of GAP | 144.8 copies per 10000 copies of GAP |
| O=c1oc2c(OS(=O)(=O)c3ccc(C(F)(F)F)cc3)cccc2cc1NS(=O)(=O)c1cccc(Br)c1 [Compound 58, 3-[(3-Bromophenyl)sulfonylamino]-2-oxochromen-8-yl 4-(trifluoromethyl)benzenesulfonate] | 18665.2 copies per 10000 copies of GAP | 7.6 copies per 10000 copies of GAP | 1040.9 copies per 10000 copies of GAP | 9346.3 copies per 10000 copies of GAP | 157.8 copies per 10000 copies of GAP |
| O=c1oc2c(OS(=O)(=O)c3cccc(C(F)(F)F)c3)cccc2cc1NS(=O)(=O)c1ccc(C(F)(F)F)cc1 [Compound 68, 2-Oxo-3-[[4-(trifluoromethyl)phenyl]sulfonylamino]-chromen-8-yl 3-(trifluoromethyl)benzenesulfonate] | 26090.7 copies per 10000 copies of GAP | 6.4 copies per 10000 copies of GAP | 823.5 copies per 10000 copies of GAP | 16195.2 copies per 10000 copies of GAP | 175.1 copies per 10000 copies of GAP |
